According to patent US20050165112A1, “Therapeutic agent for inflammatory intestinal diseases containing hydroxamic acid compound as active ingredient” (priority 2002, published 2005):

Assays:
Assay type in all cases: in vivo
[1] = test system: acetic acid-induced colitis in male SD (CD) IGS rats; assay: Acetic acid-induced colitis model; settings: rat, 0.3 or 3 mg/kg/day, 24 hours after colitis induction
Protocol: Male SD (CD) IGS rats (7 weeks old) were anesthetized with sodium pentobarbital. Colitis was induced by intracolonic instillation of 0.25 mL of 5% acetic acid with a disposable sonde for oral administration for mouse, which is attached to 1 mL syringe (Terumo). The sonde was inserted to 5 cm from anus and acetic acid was infused for 10 seconds. After the removal of the sonde, the anus was plugged for 1 minute. Then the colon was washed with approximate 10 mL of physiological saline with a disposable sonde for oral administration for rat, which was attached to 50 mL syringe (Terumo), and the sonde was inserted to 8 cm from anus.
The test compound or vehicle was administered to animals before 30 minutes and after 8 hours of the colitis induction, at each time half of a dairy dose was administered.
After 24 hours of colitis induction, all colons which from anus to cecum, were removed, the content was washed away with saline solution. After trimming of the washed colon, the colon was cut at 9 cm from anus, wiped out the solution, and weighed with electronic measure. Then the injured area (mm^2) of dissected colon was measured by image analysis.
N-hydroxy-5-hydroxy-2 (S)-methyl-4(S)—(4-phenoxybenzoyl)aminopentanamide (compound (1)) was used as a test compound. Compound (1) was administered to animals at doses of 0.3 or 3 mg/kg/day. […]

[2] = test system: TNBS-induced colitis in male SD (CD) IGS rats; assay: TNBS-induced colitis model; settings: rat, 1, 3 and 10 mg/kg/day, three days after TNBS induction
Protocol: Male SD (CD) IGS rats (7 weeks old) were anesthetized with sodium pentobarbital. A flexible sonde for oral administration was inserted to 8 cm from the anus. Colitis was induced by intracolonic instillation of 50 mg of 2,4,6-trinitrobenzenesulfonic acid (TNBS) dissolved in 0.25 mL of 20% ethanol, and the anus was plugged and leaved for 2 hours. Test compound was administered at 30 minutes before and 8 hours after the TNBS induction, since the next day of TNBS induction they were administered half of a dairy dose at each time, twice daily in the morning and the evening. Three days later the animals were sacrificed with bleeding under ether anesthetization. All colons were removed, the contents was washed out with saline solution, and then measured the length. After the trimming of the colons, 9 cm segment from the anus was obtained, the water was removed on the paper, and the wet weight was measured with electric scale.
N-hydroxy-5-ethoxymethyloxy-2 (S)-methyl-4(S)— (4-phenoxylbenzoil)aminopentanamide (compound (2)) was used as a test compound. FIG. 3 and FIG. 4 show the effects of compound (2) at the doses of 1, 3 and 10 mg/kg/day on the length and the wet weight of colons respectively.

rat = assay: Single oral administration toxicity to rat
Protocol: The toxicity of the compounds of the present invention is very low and therefore, the compounds may be considered safe for pharmaceutical use. For example, a minimum of lethal dose of the compound (2) by single oral administration to rat was 2000 mg/kg.

For `C[C@@H](C[C@@H](CO)NC(=O)c1ccc(Oc2ccccc2)cc1)C(=O)NO` [compound (1), N-hydroxy-5-hydroxy-2 (S)-methyl-4(S)—(4-phenoxybenzoyl)aminopentanamide], the injured area ([1]; FIG. 1) was “suppressive tendency to the injured area” and the “increase in intestine edema (wet weight of colon)” value ([1]; FIG. 2) was “suppressed the increase in intestine edema”.
For `CCOCOC[C@H](C[C@H](C)C(=O)NO)NC(=O)c1ccc(Oc2ccccc2)cc1` [compound (2), N-hydroxy-5-ethoxymethyloxy-2 (S)-methyl-4(S)— (4-phenoxylbenzoil)aminopentanamide], the “shrinkage of colon (length of all colons)” value ([2]; FIG. 3) was “suppressed the shrinkage of colon”, the “increase in intestine edema (wet weight of colon)” value ([2]; FIG. 4) was “suppressed the shrinkage of colon and the increase in intestine edema” and the “minimum of lethal dose” value (rat) was 2000 mg/kg.
